Source: patent US8383637B2, “2-amino-quinazoline derivatives useful as inhibitors of β-secretase (BACE)” (Jansssen Pharmaceutica N.V., priority 2004, dated 2013)

Legend:
Format in all cases: biochemical
β-secretase(BACE) [1] = target: T1, β-secretase(BACE) (Homo sapiens, UniProt P56817); experiment: BACE Assay-1 (MCA-substrate, IC50); settings: procedure of Example 158; read-out: IC50 μM (158)
T1 construct: purchased Panvera
Method: The following standards are reagents were used in this assay: Sodium Citrate trisodium salt dihydrate (Sigma), Citric Acid monohydrate (Merck), PEG8000 (Sigma), MCA-substrate (Bachem), β-secretase (BACE) (Panvera), 96-well plate zwart (Costar (Elscolab)), StatVal (Bachem).
The following standard assay buffer solution was prepared and used in this assay: 0.05 M, pH 5.0 mixture of sodium citrate trisodium salt dihydrate (9.56 g), citric acid monohydrate (3.68 g) and PEG8000 (0.50 g).
The MCA-substrate stock solution was prepared by mixing 10 mg MCA-substrate with 5 mL DMSO for a final solution concentration of 2.0 mg/mL. The substrate work solution was prepared by mixing 0.1 mL substrate in 1.90 mL assay buffer for a final concentration of 0.05 mM. The β-secretase (BACE) work solution was prepared by mixing 8 μL BACE in 2 mL assay buffer for a final concentration of 10 μg/mL.
The screen procedure for this assay was as follows. 60 μL of assay buffer was pippeted into each well of a 96-well plate. To each well was then pipetted 1 μL of test compound at the selected concentration. To each well was then added 20 μL of the β-secretase work solution and 20 μL of the MCA-substrate stock solution.
The procedure for the blank was as follows. 80 μL of assay buffer was pipetted into each well to be used as a blank control. To each well was then added 1 μL of DMSO and 20 μL of MCA-substrate solution in each well.
The procedure for the positive control was as follows. 60 μL of assay buffer was pipetted into each well to be used as a positive control. To each well was then added 1 μL of DMSO, 20 μL of BACE work solution and 20 μL of MCA-substrate stock solution.
For test compounds, measured at multiple concentrations, the measured T0 and T60 values were used to calculate an IC50 value using Graphpad Software (or PIR).

β-secretase(BACE) [2] = target: T1, β-secretase(BACE); experiment: BACE Assay-2 (FS1 substrate, IC50 and Ki); settings: procedure of Example 159, FS1 substrate; for Ki: read-out: Ki μM (159)
β-secretase(BACE) [3] = target: T1, β-secretase(BACE); experiment: BACE FS1% Inhibition Assay; settings: FS1 substrate; for inhibition at 0.3 µM: 0.3 μM test compound, read-out: % Inhibition (FS) 0.3 μM; for inhibition at 1 µM: 1 μM test compound, read-out: % Inhibition (FS) 1 μM; for inhibition at 3 µM: 3 μM test compound, read-out: % Inhibition (FS) 3 μM
Procedure, shortened: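 Percent inhibition at each tested concentration, referenced to enzyme-free blank and vehicle-only positive control. Reaction: compound and BACE (4 μg/mL working stock) mixed 20 min at room temperature before FS1 substrate (300 μg/mL working stock), then 1 h at room temperature.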

T1 sequence (P56817 46-501): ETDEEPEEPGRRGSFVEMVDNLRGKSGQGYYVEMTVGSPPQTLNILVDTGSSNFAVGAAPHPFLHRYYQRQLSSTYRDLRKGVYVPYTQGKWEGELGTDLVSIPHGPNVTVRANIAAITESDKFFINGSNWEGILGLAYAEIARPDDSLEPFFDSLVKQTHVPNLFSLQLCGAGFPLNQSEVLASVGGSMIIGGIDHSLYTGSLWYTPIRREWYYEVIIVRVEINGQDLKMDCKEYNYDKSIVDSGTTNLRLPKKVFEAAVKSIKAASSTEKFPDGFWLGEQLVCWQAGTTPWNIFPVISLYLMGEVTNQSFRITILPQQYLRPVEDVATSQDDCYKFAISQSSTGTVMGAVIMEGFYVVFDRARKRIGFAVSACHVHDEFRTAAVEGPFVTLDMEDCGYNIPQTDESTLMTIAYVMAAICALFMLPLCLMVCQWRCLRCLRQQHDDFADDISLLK

| SMILES | IC50 (β-secretase(BACE) [1]) | also measured |
| --- | --- | --- |
| CN(CCN1Cc2cc(Oc3ccccc3)ccc2N=C1N)C(=O)OC(C)(C)C [Compound 425, [2-(2-Amino-6-phenoxy-4H-quinazolin-3-yl)-ethyl]-methyl-carbamic acid tert-butyl ester] | 0.14 µM | Ki (β-secretase(BACE) [2]): 0.074 µM; inhibition at 0.3 µM (β-secretase(BACE) [3]): 46%; inhibition at 1 µM (β-secretase(BACE) [3]): 85%; inhibition at 3 µM (β-secretase(BACE) [3]): 111% |
| COC1CCCC(C(=O)NCCN2Cc3cc(Oc4ccccc4)ccc3N=C2N)C1 (stereo not shown) [Compound 219] | 0.31 µM | Ki (β-secretase(BACE) [2]): 0.17 µM; inhibition at 0.3 µM (β-secretase(BACE) [3]): 51%; inhibition at 1 µM (β-secretase(BACE) [3]): 85%; inhibition at 3 µM (β-secretase(BACE) [3]): 108% |
| CC(C)(C)C(=O)NCCN1Cc2cc(Oc3ccccc3)ccc2N=C1N [Compound 141] | 0.15 µM | Ki (β-secretase(BACE) [2]): 0.08 µM; inhibition at 3 µM (β-secretase(BACE) [3]): 100%; inhibition at 10 µM (β-secretase(BACE) [3]; 10 μM test compound, read-out: % Inhibition (FS) 10 μM): 102% |
| NC1=Nc2ccc(Oc3ccccc3)cc2CN1CCNC(=S)NC12CC3CC(CC(C3)C1)C2 [Compound 214, 1-Adamantan-1-yl-3-[2-(2-amino-6-phenoxy-4H-quinazolin-3-yl)-ethyl]-thiourea] | 0.19 µM | Ki (β-secretase(BACE) [2]): 0.1 µM; inhibition at 0.3 µM (β-secretase(BACE) [3]): < 30%; inhibition at 1 µM (β-secretase(BACE) [3]): 70%; inhibition at 3 µM (β-secretase(BACE) [3]): 101% |
| NC1=Nc2ccc(Oc3ccccc3)cc2CN1CCNC(=O)NC12CC3CC(CC(C3)C1)C2 [Compound 206, 1-Adamantan-1-yl-3-[2-(2-amino-6-phenoxy-4H-quinazolin-3-yl)-ethyl]-urea] | 0.078 µM | Ki (β-secretase(BACE) [2]): 0.27 µM; inhibition at 0.3 µM (β-secretase(BACE) [3]): < 30%; inhibition at 1 µM (β-secretase(BACE) [3]): 62%; inhibition at 3 µM (β-secretase(BACE) [3]): 106% |
| C[C@H](CNC(=O)C1CCCCC1)N1Cc2cc(Oc3ccccc3)ccc2N=C1N [Compound 495, (R)-Enantiomer of cyclohexanecarboxylic acid [2-(2-amino-6-phenoxy-4H-quinazolin-3-yl)-propyl]-amide] | 0.25 µM | Ki (β-secretase(BACE) [2]): 0.1 µM; inhibition at 0.3 µM (β-secretase(BACE) [3]): < 30%; inhibition at 1 µM (β-secretase(BACE) [3]): 75%; inhibition at 3 µM (β-secretase(BACE) [3]): 106% |
| Cc1noc(C)c1-c1ccc2c(c1)CN(Cc1cccc(C(=O)N(C)C3CCCCC3)c1)C(N)=N2 [Compound 159] | 0.89 µM | Ki (β-secretase(BACE) [2]): 0.28 µM; inhibition at 0.3 µM (β-secretase(BACE) [3]): 34%; inhibition at 1 µM (β-secretase(BACE) [3]): 65%; inhibition at 3 µM (β-secretase(BACE) [3]): 92% |
| CN(C(=O)c1cccc(CN2Cc3cc(-c4ccccc4CC#N)ccc3N=C2N)c1)C1CCCCC1 [Compound 325] | 0.089 µM | Ki (β-secretase(BACE) [2]): 0.1 µM; inhibition at 0.3 µM (β-secretase(BACE) [3]): < 30%; inhibition at 1 µM (β-secretase(BACE) [3]): 86%; inhibition at 3 µM (β-secretase(BACE) [3]): 110% |
| NC1=Nc2ccc(Oc3ccccc3)cc2CN1CCNC(=O)C1(c2ccc(Cl)cc2)CCCC1 [Compound 196] | 0.015 µM | Ki (β-secretase(BACE) [2]): 0.11 µM; inhibition at 0.3 µM (β-secretase(BACE) [3]): 65%; inhibition at 1 µM (β-secretase(BACE) [3]): 96%; inhibition at 3 µM (β-secretase(BACE) [3]): 120% |
| COc1ccc(NC(=O)C(C)(C)C)c(-c2ccc3c(c2)CN(Cc2cccc(C(=O)N(C)C4CCCCC4)c2)C(N)=N3)c1 [Compound 160] | 0.54 µM | Ki (β-secretase(BACE) [2]): 0.12 µM; inhibition at 0.3 µM (β-secretase(BACE) [3]): 51%; inhibition at 1 µM (β-secretase(BACE) [3]): 78%; inhibition at 3 µM (β-secretase(BACE) [3]): 102% |
| NC1=Nc2ccc(C(=O)c3ccccc3)cc2CN1CCCOc1ccccc1 [Compound 8] | 3.1 µM | IC50 (β-secretase(BACE) [2]): 15 µM; Ki (β-secretase(BACE) [2]): 1.2 µM |
| CCCN1Cc2cc(Oc3cccc(NS(=O)(=O)c4ccc(-c5ccccc5)cc4)c3)ccc2N=C1N [Compound 280] | 11 µM |  |
| CCCN1Cc2cc(Oc3cccc(NS(=O)(=O)c4cccc5c(N(C)C)cccc45)c3)ccc2N=C1N [Compound 253] | > 10 µM |  |
| CCCCS(=O)(=O)Nc1cccc(Oc2ccc3c(c2)CN(CCC)C(N)=N3)c1 [Compound 239] | 0.35 µM |  |
| CN(C(=O)CCN1Cc2cc(C(=O)c3ccc(F)cc3)ccc2N=C1N)C1CCCCC1 [Compound 2] | 26 µM |  |
| CN(Cc1cccc2ccccc12)C(=O)CCN1Cc2cc(C(=O)c3ccccc3)ccc2N=C1N [Compound 42] | 15 µM |  |
| Cc1cc(C)c(S(=O)(=O)Nc2cccc(Oc3ccc4c(c3)CN(CCCCCO)C(N)=N4)c2)c(C)c1 [Compound 383] | 0.65 µM |  |
| CCCN1Cc2cc(OCc3cccc(NS(=O)(=O)c4ccccc4)c3)ccc2N=C1N [Compound 203] | 4.7 µM |  |
| CN(C(=O)CCN1Cc2cc(C(=O)c3ccccc3)ccc2N=C1N)c1ccccc1 [Compound 13] | 16 µM |  |
| CCCN1Cc2cc(Oc3cccc(NS(=O)(=O)c4cccc5ccccc45)c3)ccc2N=C1N [Compound 274] | > 10 µM |  |
| CCCN1Cc2cc(Oc3cccc(NCc4c(C)cc(C)cc4C)c3)ccc2N=C1N [Compound 500] | 0.16 µM |  |
| CCCN1Cc2cc(Sc3cccc(NS(=O)(=O)c4c(C)cc(C)cc4C)c3)ccc2N=C1N [Compound 497] | 0.011 µM |  |
| CN(C(=O)CCCCN1Cc2cc(Oc3cccc(NC(=O)OCc4ccccc4)c3)ccc2N=C1N)C1CCCCC1 [Compound 133] | 0.15 µM |  |
| CCCN1Cc2cc(Oc3cccc(CNCCc4ccccc4)c3)ccc2N=C1N [Compound 431] | 0.8 µM |  |

| SMILES | IC50 (β-secretase(BACE) [1]) | also measured |
| --- | --- | --- |
| CCCN1Cc2cc(Oc3cccc(NS(=O)(=O)c4ccc(-c5ccccn5)s4)c3)ccc2N=C1N [Compound 251] | > 10 µM |  |
| CC(C)N(C)C(=O)CCN1Cc2cc(C(=O)c3ccccc3)ccc2N=C1N [Compound 22] | 12 µM |  |
| CCCN1Cc2cc(Oc3cccc(NS(=O)(=O)Cc4ccccc4)c3)ccc2N=C1N [Compound 269] | 0.35 µM |  |
| CCCN1Cc2cc(Oc3cccc(NS(=O)(=O)c4ccc(Br)s4)c3)ccc2N=C1N [Compound 284] | 0.87 µM |  |
| COc1cc(C)ccc1S(=O)(=O)Nc1cccc(Oc2ccc3c(c2)CN(CCCCCO)C(N)=N3)c1 [Compound 355] | 2.6 µM |  |
| NC1=Nc2ccc(Oc3cccc(NS(=O)(=O)c4ccccc4)c3)cc2CN1CCCCCO [Compound 380] | 0.71 µM |  |
| CCCN1Cc2cc(Oc3cccc(NS(=O)(=O)c4ccc(OC)cc4)c3)ccc2N=C1N [Compound 272] | 0.52 µM |  |
| CCCN1Cc2cc(Oc3cccc(NS(=O)(=O)c4ccsc4)c3)ccc2N=C1N [Compound 240] | 0.89 µM |  |
| CCCN1Cc2cc(Oc3cccc(NS(=O)(=O)c4ccc(-c5cc(C(F)(F)F)on5)s4)c3)ccc2N=C1N [Compound 255] | > 10 µM |  |
| CN(CCc1ccccc1)C(=O)CCN1Cc2cc(C(=O)c3ccccc3)ccc2N=C1N [Compound 40] | 9.8 µM |  |
| CCCN1Cc2cc(Oc3cccc(NS(=O)(=O)c4c(C)cc(C)cc4C)c3)ccc2N=C1N [Compound 243] | 0.033 µM |  |
| CN(C1CCCCC1)S(=O)(=O)CCN1Cc2cc(Oc3cccc(NC(=O)OCc4ccccc4)c3)ccc2N=C1N [Compound 71] | 2.6 µM |  |
| CCCN1Cc2cc(Oc3cccc(NS(=O)(=O)c4ccc(OC(F)(F)F)cc4)c3)ccc2N=C1N [Compound 283] | > 10 µM |  |
| CCCN1Cc2cc(Oc3cccc(NS(=O)(=O)c4ccc(-c5ccno5)s4)c3)ccc2N=C1N [Compound 278] | > 10 µM |  |
| Cc1ccc(C(CCC(=O)N(C)C2CCCCC2)N2Cc3cc(Oc4ccccc4)ccc3N=C2N)cc1 (stereo not shown) [Compound 421] | 0.054 µM | inhibition at 0.3 µM (β-secretase(BACE) [3]): < 30%; inhibition at 1 µM (β-secretase(BACE) [3]): 71%; inhibition at 3 µM (β-secretase(BACE) [3]): 111% |
| CN(C(=O)CCN1Cc2cc(C(=O)c3ccccc3)ccc2N=C1N)C1CCCC1 [Compound 24] | 1.8 µM |  |
| CCCN1Cc2cc(Oc3cccc(NS(=O)(=O)c4csc5ccccc45)c3)ccc2N=C1N [Compound 245] | 0.17 µM |  |
| CN(C(=O)CCCCN1Cc2cc(C(=O)c3ccccc3)ccc2N=C1N)C12CC3CC(CC(C3)C1)C2 [Compound 48] | 4 µM |  |
| CN(C1CCCCC1)S(=O)(=O)CCN1Cc2cc(C(=O)c3ccccc3)ccc2N=C1N [Compound 57, 2-(2-Amino-6-benzoyl-4H-quinazolin-3-yl)-ethanesulfonic acid cyclohexyl-methyl-amide] | 1.4 µM |  |
| CCCN1Cc2cc(Oc3cccc(NCc4ccc(OC)cc4)c3)ccc2N=C1N [Compound 502] | 0.18 µM |  |
| CCCN1Cc2cc(Oc3cccc(NS(=O)(=O)CCc4cccc5ccccc45)c3)ccc2N=C1N [Compound 281] | 1.6 µM |  |
| CCCN1Cc2cc([S+]([O-])c3cccc(NS(=O)(=O)c4ccccc4)c3)ccc2N=C1N (stereo not shown) [Compound 387, N-[3-(2-Amino-3-propyl-3,4-dihydro-quinazoline-6-sulfinyl)-phenyl]-benzenesulfonamide] | 3.3 µM |  |
| CN(C(=O)CCN1Cc2ccc(C(=O)c3ccccc3)cc2N=C1N)C1CCCCC1 [Compound 35] | 33 µM |  |
